# Experimental data: the supplement of paper PMC10307832
# Experiments:
# Experiment in all cases: relative viability (nuclei count vs DMSO), 5 days (fraction); higher = more cells survive
# [1] = compound: CCn1c(-c2nonc2N)nc2c(C#CC(C)(C)O)ncc(OC[C@H]3CCCNC3)c21 + COc1cc2c(Oc3ccc(NC(=O)C4(C(=O)Nc5ccc(F)cc5)CC4)cc3F)ccnc2cc1OCCCN1CCOCC1 [Foretinib] (partner 0.25 µM)
# How it was run: (§1)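 Relative viability was taken as the ratio of nuclei in treated wells to nuclei in vehicle wells. Lung cancer cell lines in 1536-well plates received compounds by pin tool one day after seeding, either one drug alone or a fixed anchor-drug dose plus five library-drug doses (not always all listed) in √10 steps. Nuclei were counted on 4× images after 5 days of treatment, and values are medians of duplicate plates.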
# [2] = compound: CCOC1=CC=CC=C1N=NC2=C(NN(C2=O)C3=NC(=CS3)C4=CC=CC=C4)C [BAM7] + Cc1cc(Nc2cc(N3CCN(C)CC3)nc(Sc3ccc(NC(=O)C4CC4)cc3)n2)n[nH]1 [Tozasertib] (partner 0.1 µM)
# How it was run: as §1
# [3] = compound: CCn1c(-c2nonc2N)nc2c(C#CC(C)(C)O)ncc(OC[C@H]3CCCNC3)c21 + CC(C)C[C@H](NC(=O)[C@H](Cc1ccccc1)NC(=O)c1cnccn1)B(O)O [Bortezomib] (partner 0.002 µM)
# How it was run: as §1
# [4] = compound: CCn1c(-c2nonc2N)nc2c(C#CC(C)(C)O)ncc(OC[C@H]3CCCNC3)c21 + C[C@]1(O)C[C@@H](c2nc(-c3ccc4ccc(-c5ccccc5)nc4c3)c3c(N)nccn32)C1 [Linsitinib] (partner 1 µM)
# How it was run: as §1
Cell Line,relative viability ([1]; first compound 0.01 µM),relative viability ([1]; first compound 0.1 µM),relative viability ([1]; first compound 0.3162 µM),relative viability ([1]; first compound 1 µM),relative viability ([2]; first compound 0.5 µM),relative viability ([2]; first compound 5 µM),relative viability ([2]; first compound 15.81 µM),relative viability ([2]; first compound 50 µM),relative viability ([3]; first compound 0.01 µM),relative viability ([3]; first compound 0.03162 µM),relative viability ([3]; first compound 0.1 µM),relative viability ([3]; first compound 0.3162 µM),relative viability ([3]; first compound 1 µM),relative viability ([4]; first compound 0.01 µM),relative viability ([4]; first compound 0.03162 µM),relative viability ([4]; first compound 0.1 µM),relative viability ([4]; first compound 0.3162 µM),relative viability ([4]; first compound 1 µM),relative viability ([1]; first compound 0.03162 µM)
201T,1.14,1.14,1.09,0.995,0.737,0.805,0.673,0.726,1.1,1.14,1.1,1.07,1.09,1.05,1.1,0.986,1.03,1.02,
A549,0.92,0.886,0.843,0.845,,,,,,,,,,0.681,0.624,0.444,0.505,0.647,1.08
A-427,0.978,1.1,0.981,0.991,0.202,0.199,0.216,0.202,0.975,0.991,1.08,1.01,1.01,1.13,1.05,1.15,1.1,1.13,1.23
ABC-1,1.04,1.01,0.813,1.08,0.164,0.162,0.183,0.227,0.292,0.299,0.301,0.332,0.294,0.818,0.73,0.847,0.685,0.526,1.28
BEN,0.615,0.7,0.686,0.683,0.559,0.442,0.59,0.423,0.713,0.803,0.661,0.73,0.696,0.9,1.08,0.772,0.767,0.967,0.467
CAL-12T,1.15,1.05,1.05,1.07,0.311,0.257,0.236,0.24,0.939,0.852,1.08,1.16,1.1,0.878,0.784,0.819,0.802,0.715,1.05
COR-L23,0.835,0.903,1.02,1,0.177,0.197,0.133,0.183,1.01,0.961,0.97,0.884,0.938,0.891,0.946,0.884,0.805,0.829,1.08
COR-L 105,1.01,1.04,1.03,1.16,0.359,0.435,0.357,0.359,0.82,0.783,1,0.693,0.763,1.1,0.848,1.29,0.747,0.81,1
Calu-6,0.85,0.866,0.824,0.942,,,,,1.01,1.06,1.1,0.998,1.12,0.88,1.06,0.842,0.952,0.935,0.86
